# Measured values published in PubChem BioAssay (NCI).
#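 How tested: cells in 96-well plates exposed to compound for 48 hours at five concentrations. GI50 marks 50% less growth. Definition used: TGI = concentration required for complete inhibition of growth.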
# Key:
# Experiment in all cases: DTP human tumour cell line panel, 48 h
# HCT-15 colon = system: HCT-15 colon
# NCI-H522 lung = system: NCI-H522 lung
# SK-MEL-28 melanoma = system: SK-MEL-28 melanoma
# RXF 393 renal = system: RXF 393 renal
# HOP-62 NSCLC = system: HOP-62 NSCLC
# UACC-62 melanoma = system: UACC-62 melanoma
# KM12 colon = system: KM12 colon
# IGROV1 ovarian = system: IGROV1 ovarian
# MOLT-4 leukemia = system: MOLT-4 leukemia
# HOP-92 NSCLC = system: HOP-92 NSCLC
Structure (SMILES),TGI (HCT-15 colon) [µM],TGI (NCI-H522 lung) [µM],TGI (SK-MEL-28 melanoma) [µM],TGI (RXF 393 renal) [µM],TGI (HOP-62 NSCLC) [µM],TGI (UACC-62 melanoma) [µM],TGI (KM12 colon) [µM],TGI (IGROV1 ovarian) [µM],TGI (MOLT-4 leukemia) [µM],TGI (HOP-92 NSCLC) [µM],GI50 (HCT-15 colon) [µM],GI50 (NCI-H522 lung) [µM],GI50 (SK-MEL-28 melanoma) [µM],GI50 (RXF 393 renal) [µM],GI50 (UACC-62 melanoma) [µM],GI50 (KM12 colon) [µM],GI50 (IGROV1 ovarian) [µM],GI50 (MOLT-4 leukemia) [µM],GI50 (HOP-92 NSCLC) [µM]
CC1(C)CCCC2(C)[C@@H]1CC[C@]13C[C@](C)(CC[C@@H]21)[C@@H]3CO (some centres not stated),> 100,> 100,> 100,> 100,> 100,> 100,> 100,> 100,> 100,> 100,–,–,–,–,–,–,–,–,–
CCOC(=O)c1csc(NC(=O)CCN2CCOCC2)n1,> 100,–,> 100,> 100,> 100,> 100,–,> 100,81.1,> 100,–,–,–,–,–,–,–,–,–
COc1ccc2c(c1)C(=O)/C(=C/c1ccccc1)C2,> 100,> 100,> 100,> 100,> 100,> 100,> 100,> 100,> 100,> 100,–,–,–,–,–,–,–,–,–
CCNc1nc2c(=O)n(C)c(=O)n(C)c2s1,> 100,> 100,> 100,> 100,> 100,> 100,> 100,> 100,> 100,> 100,–,–,–,–,–,–,–,–,–
C=C1CC2(C)CCC(OC(=O)C3(C)OC3C)C(C)(OC(C)=O)C2CC1=C(C)C (configuration not stated),> 100,> 100,> 100,> 100,> 100,> 100,> 100,> 100,> 100,> 100,–,–,–,–,–,–,–,–,–
CC12CCC3C(CCC4(O)C=CCCC34C=O)C1(O)CC(O)C2c1ccc(=O)oc1 (configuration not stated),0.178,0.0622,0.799,0.0693,0.0954,0.145,0.367,0.35,0.394,0.267,–,–,–,–,–,–,–,–,–
O=c1n(Cc2ccccc2)c2ccccc2n1CC1CS1 (configuration not stated),> 100,> 100,> 100,–,> 100,> 100,> 100,> 100,> 100,> 100,–,–,–,–,–,–,–,–,–
COc1cc(CN(C)N2C(=O)c3cccc4cc([N+](=O)[O-])cc(c34)C2=O)cc(OC)c1OC,> 100,> 100,> 100,90.3,51.9,> 100,> 100,> 100,> 100,> 100,–,–,–,–,–,–,–,–,–
O=C1CNC(=O)N1,> 1120,> 1120,> 1120,> 1120,> 1120,> 1120,> 1120,> 1120,> 1120,> 11.2,–,–,–,–,–,–,–,–,–
O=C(NC/C=C/CO)c1ccccc1,> 100,> 100,> 100,> 100,> 100,> 100,> 100,> 100,> 100,–,–,–,–,–,–,–,–,–,–
Cc1cc(C)c(S(=O)(=O)N(CCCCCCN)OCCCON(CCCCCCN)S(=O)(=O)c2c(C)cc(C)cc2C)c(C)c1,3.6,3.27,–,3.18,3.6,3.15,4.35,3.22,–,2.96,–,–,–,–,–,–,–,–,–
ClCc1nnc2n1-c1ccc(Cl)cc1SC2,23.8,3.21,17.6,9.79,17.4,8.51,15.1,8.09,3.98,9.26,–,–,–,–,–,–,–,–,–
Fc1cc(C2=Nn3c(nnc3-c3cc(F)c(Cl)cc3Cl)SC2)c(Cl)cc1Cl,70.2,> 100,54.3,62.5,–,38.6,86.8,> 100,74.2,> 100,20.2,24.1,21.5,23.2,13.3,28.5,29.8,16.9,11.3
